In patent US10934298B2, “Substituted pyrazolo[1,5-a]pyrimidines for the treatment of medical disorders” (BIAL—BioTech Investments, Inc., priority 2016, dated 2021):

Target: T1, glucocerebrosidase (Gcase) (Homo sapiens, UniProt P04062)
T1 construct: micellar solution containing 10 nM GCase and 100 nM saposin C
T1 sequence (P04062 40-536): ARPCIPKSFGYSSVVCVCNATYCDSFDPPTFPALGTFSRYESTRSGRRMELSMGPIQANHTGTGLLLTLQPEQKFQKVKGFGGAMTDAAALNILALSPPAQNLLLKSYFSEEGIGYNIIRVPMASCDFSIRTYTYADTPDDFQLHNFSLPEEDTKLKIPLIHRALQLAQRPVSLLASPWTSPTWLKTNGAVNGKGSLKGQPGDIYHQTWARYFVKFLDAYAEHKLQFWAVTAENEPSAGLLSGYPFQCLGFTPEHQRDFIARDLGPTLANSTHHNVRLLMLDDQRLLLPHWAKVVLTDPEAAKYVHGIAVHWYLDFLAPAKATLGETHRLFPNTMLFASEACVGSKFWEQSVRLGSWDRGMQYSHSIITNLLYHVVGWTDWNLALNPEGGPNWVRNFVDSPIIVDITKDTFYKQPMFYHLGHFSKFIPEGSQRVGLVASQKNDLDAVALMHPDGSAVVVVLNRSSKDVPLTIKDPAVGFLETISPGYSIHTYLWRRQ
Test: Glucocerebrosidase (Gcase) activation assay with 4-methylumbelliferyl-beta-D-glucopyranoside substrate, saposin C and phosphatidylserine/triton micelles, fluorescence readout
Assay type: biochemical
Outline: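 10 nM GCase with 100 nM saposin C pre-incubated 30 min with compound in pH 4.7 phosphate/citrate PS/triton micelles, then mixed 1:1 with 2 mM 4-methylumbelliferyl-β-glucoside micellar substrate (stock level). Run 15 min at room temperature, stopped at pH 12.5; fluorescence 365/440 nm. Screened at 1.0 and 0.1 μM; 8-point curves from 5 μM.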

Row | SMILES | Percent Gcase Activation, 0.1 μM Test Compound (0.1 μM test compound) | Percent Gcase Activation, 1 μM Test Compound (1 μM test compound) | Percent Gcase Activation, 0.1 μM Test Compound (test compound at 0.1 μM) | Percent Gcase Activation, 1 μM Test Compound (test compound at 1.0 μM) | also measured
1 | Cc1cc(-c2cccc(F)c2C#N)nc2c(C(=O)N[C@@H](C)C3CC3)cnn12 [III-398] | *** (greater than 20% Gcase activation) | +++ (Gcase activation greater than 60%) | – | – | –
2 | Cc1cc(-c2noc(C(C)C)n2)nc2c(C(=O)N[C@@H](C)C3CC3)cnn12 [III-402] | *** (greater than 20% Gcase activation) | +++ (Gcase activation greater than 60%) | – | – | –
3 | Cc1cc(-c2cccc3c2OCO3)nc2c(C(=O)NC(C3CC3)C(F)(F)F)cnn12 (stereo not drawn) [III-183] | – | – | *** (greater than 20% Gcase activation) | +++ (Gcase activation greater than 60%) | –
4 | Cc1cc(-c2ccc(F)cc2C#N)nc2c(C(=O)N[C@H](C)C3CC3)cnn12 [III-153] | – | – | ** (Gcase activation in the range of 10% up to 20%) | +++ (Gcase activation greater than 60%) | –
5 | Cc1cc(-c2ccc(F)o2)nc2c(C(=O)NC(C3CC3)C(F)(F)F)cnn12 (stereo not drawn) [III-264] | – | – | *** (greater than 20% Gcase activation) | +++ (Gcase activation greater than 60%) | –
6 | Cc1cc(-c2ccncc2)nc2c(C(=O)NC(C)(C)C3CC3)cnn12 [III-20] | – | – | – | – | Percent Gcase Activation, 0.1 μM Test Compound (0.1 μM test compound, Table 3A): * (less than 10% Gcase activation); Percent Gcase Activation, 1 μM Test Compound (1 μM test compound, Table 3A): +++ (Gcase activation greater than 60%)
7 | Cc1cc(-c2sccc2C#N)nc2c(C(=O)N[C@H](C)C3CC3)cnn12 [III-302] | *** (greater than 20% Gcase activation) | +++ (Gcase activation greater than 60%) | – | – | –
8 | COc1cccc(-c2cc(C)n3ncc(C(=O)N[C@@H](C)C4CC4)c3n2)c1 [III-57] | – | – | – | – | Percent Gcase Activation, 0.1 μM Test Compound (0.1 μM test compound, Table 3A): *** (greater than 20% Gcase activation); Percent Gcase Activation, 1 μM Test Compound (1 μM test compound, Table 3A): +++ (Gcase activation greater than 60%)
9 | Cc1cc(-c2cccnc2)nc2c(C(=O)N[C@H]3CC[C@H](OC(C)(C)C)CC3)cnn12 [III-38] | – | – | – | – | Percent Gcase Activation, 0.1 μM Test Compound (0.1 μM test compound, Table 3A): * (less than 10% Gcase activation); Percent Gcase Activation, 1 μM Test Compound (1 μM test compound, Table 3A): + (less than 30% Gcase activation)
10 | Cc1cc(-c2cccc(C#N)c2)nc2c(C(=O)N[C@H](C)C3CC3)cnn12 [III-93] | – | – | ** (Gcase activation in the range of 10% up to 20%) | +++ (Gcase activation greater than 60%) | –
11 | Cc1cc(-c2cccc(C(=O)N(C)C)c2)nc2c(C(=O)NC(C3CC3)C(F)(F)F)cnn12 (stereo not drawn) [III-413] | * (less than 10% Gcase activation) | +++ (Gcase activation greater than 60%) | – | – | –
12 | Cc1cc(N2CCCCC2)n2ncc(C(=O)N[C@@H](C)C3CC3)c2n1 [III-30] | – | – | – | – | Percent Gcase Activation, 0.1 μM Test Compound (0.1 μM test compound, Table 3A): * (less than 10% Gcase activation); Percent Gcase Activation, 1 μM Test Compound (1 μM test compound, Table 3A): + (less than 30% Gcase activation)
13 | Cc1cc(-c2cccc(C(N)=O)n2)nc2c(C(=O)NC(C3CC3)C(F)(F)F)cnn12 (stereo not drawn) [III-161] | – | – | * (less than 10% Gcase activation) | +++ (Gcase activation greater than 60%) | –
14 | Cc1cc(-c2cc(C)n3ncc(C(=O)NC(C4CC4)C(F)(F)F)c3n2)sn1 (stereo not drawn) [III-214] | – | – | *** (greater than 20% Gcase activation) | +++ (Gcase activation greater than 60%) | –
15 | Cc1ncc(-c2cc(C)n3ncc(C(=O)NC(C4CC4)C(F)(F)F)c3n2)o1 (stereo not drawn) [III-246] | – | – | ** (Gcase activation in the range of 10% up to 20%) | +++ (Gcase activation greater than 60%) | –
16 | COc1cc(F)cc(-c2cc(C)n3ncc(C(=O)N[C@@H](C)C4CC4)c3n2)c1 [III-137] | – | – | *** (greater than 20% Gcase activation) | +++ (Gcase activation greater than 60%) | –
17 | Cc1cc(-n2ccc(F)n2)nc2c(C(=O)N[C@H](C3CC3)C(F)(F)F)cnn12 [III-173] | – | – | *** (greater than 20% Gcase activation) | +++ (Gcase activation greater than 60%) | –
18 | Cc1cc(-c2cc(F)ccc2C#N)nc2c(C(=O)N[C@H](C)C(F)(F)F)cnn12 [III-349] | *** (greater than 20% Gcase activation) | ++ (Gcase activation in the range of 30% up to 60%) | – | – | –
19 | COCc1cc(-c2cccc(F)c2)nc2c(C(=O)NC(C)(C)C3CC3)cnn12 [III-74] | – | – | – | – | Percent Gcase Activation, 0.1 μM Test Compound (0.1 μM test compound, Table 3A): ** (Gcase activation in the range of 10% up to 20%); Percent Gcase Activation, 1 μM Test Compound (1 μM test compound, Table 3A): +++ (Gcase activation greater than 60%)

Second part, led by results:

Row | Percent Gcase Activation, 0.1 μM Test Compound (0.1 μM test compound) | Percent Gcase Activation, 1 μM Test Compound (1 μM test compound) | Percent Gcase Activation, 0.1 μM Test Compound (test compound at 0.1 μM) | Percent Gcase Activation, 1 μM Test Compound (test compound at 1.0 μM) | SMILES | also measured
20 | *** (greater than 20% Gcase activation) | +++ (Gcase activation greater than 60%) | – | – | Cc1cc(-c2ccoc2)nc2c(C(=O)N[C@H](C)C(F)(F)F)cnn12 [III-337] | –
21 | – | – | *** (greater than 20% Gcase activation) | +++ (Gcase activation greater than 60%) | COc1ccc(F)cc1-c1cc(C)n2ncc(C(=O)N[C@@H](C)C(F)(F)F)c2n1 [III-196] | –
22 | – | – | *** (greater than 20% Gcase activation) | +++ (Gcase activation greater than 60%) | Cc1cc(-c2ccns2)nc2c(C(=O)N[C@@H](C3CC3)C(F)(F)F)cnn12 [III-101] | –
23 | – | – | *** (greater than 20% Gcase activation) | +++ (Gcase activation greater than 60%) | Cc1cc(-c2cccnc2F)nc2c(C(=O)NC(C3CC3)C(F)(F)F)cnn12 (stereo not drawn) [III-113] | –
24 | – | – | *** (greater than 20% Gcase activation) | +++ (Gcase activation greater than 60%) | Cc1cc(-c2ccc3ocnc3c2)nc2c(C(=O)N[C@@H](C)C(F)(F)F)cnn12 [III-168] | –
25 | – | – | *** (greater than 20% Gcase activation) | +++ (Gcase activation greater than 60%) | Cc1cc(-c2ccc(F)cc2C#N)nc2c(C(=O)N[C@@H](C)C(F)(F)F)cnn12 [III-156] | –
26 | – | – | *** (greater than 20% Gcase activation) | +++ (Gcase activation greater than 60%) | COc1cc(-c2cc(C)n3ncc(C(=O)NC(C4CC4)C(F)(F)F)c3n2)ccc1F (stereo not drawn) [III-147] | –
27 | *** (greater than 20% Gcase activation) | +++ (Gcase activation greater than 60%) | – | – | Cc1cc(-c2cc(F)ccc2C#N)nc2c(C(=O)N[C@@H](C)C(F)(F)F)cnn12 [III-350] | –
28 | – | – | * (less than 10% Gcase activation) | + (less than 30% Gcase activation) | COc1ccncc1-c1cc(C)n2ncc(C(=O)NC(C)C(F)(F)F)c2n1 (stereo not drawn) [III-269] | –
29 | *** (greater than 20% Gcase activation) | +++ (Gcase activation greater than 60%) | – | – | COc1cc(F)cc(-c2cc(C)n3ncc(C(=O)NC(C)C(F)(F)F)c3n2)c1 (stereo not drawn) [III-410] | –
30 | *** (greater than 20% Gcase activation) | +++ (Gcase activation greater than 60%) | – | – | Cc1cc(-c2cccc(F)c2C#N)nc2c(C(=O)N[C@@H](C)C(F)(F)F)cnn12 [III-399] | –
